ChEMBL document CHEMBL3124844 (J Med Chem, 2014)

How the values were obtained:
[1] = target: Sodium-dependent serotonin transporter (Rattus norvegicus) (UniProt P31652); assay: Displacement of [3H]citalopram from Sprague-Dawley rat brain SERT at 100 uM after 60 mins by liquid scintillation counting analysis relative to control; type: tissue-based
[2] = Displacement of [3H]nisoxetine from Sprague-Dawley rat brain NET after 180 mins by liquid scintillation counting analysis; type: tissue-based
Rattus norvegicus [3] = species: Rattus norvegicus; assay: Selectivity ratio of Ki for Sprague-Dawley rat brain SERT to Ki for Sprague-Dawley rat brain DAT
[4] = target: Sodium-dependent serotonin transporter (Rattus norvegicus, UniProt P31652); assay: Displacement of [3H]citalopram from Sprague-Dawley rat brain SERT after 60 mins by liquid scintillation counting analysis; type: tissue-based
Sodium-dependent serotonin transporter, sequence (P31652 whole entry): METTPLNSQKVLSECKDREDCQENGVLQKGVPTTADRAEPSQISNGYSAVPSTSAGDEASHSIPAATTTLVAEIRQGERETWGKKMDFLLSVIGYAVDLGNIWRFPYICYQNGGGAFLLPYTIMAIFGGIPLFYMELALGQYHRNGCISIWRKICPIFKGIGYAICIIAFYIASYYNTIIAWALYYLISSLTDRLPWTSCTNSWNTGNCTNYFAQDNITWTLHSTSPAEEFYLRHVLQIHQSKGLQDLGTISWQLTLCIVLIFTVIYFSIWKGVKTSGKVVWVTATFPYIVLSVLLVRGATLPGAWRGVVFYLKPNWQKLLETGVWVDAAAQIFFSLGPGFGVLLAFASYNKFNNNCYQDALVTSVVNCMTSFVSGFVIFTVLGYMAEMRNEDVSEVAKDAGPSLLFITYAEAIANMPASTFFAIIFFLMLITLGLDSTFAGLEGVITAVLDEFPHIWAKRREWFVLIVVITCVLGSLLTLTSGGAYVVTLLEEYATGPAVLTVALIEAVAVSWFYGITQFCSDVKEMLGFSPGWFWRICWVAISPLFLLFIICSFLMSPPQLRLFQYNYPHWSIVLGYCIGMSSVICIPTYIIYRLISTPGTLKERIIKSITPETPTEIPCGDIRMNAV

Rattus norvegicus [5] = species: Rattus norvegicus; assay: Displacement of [3H]nisoxetine from Sprague-Dawley rat brain NET at 100 uM after 180 mins by liquid scintillation counting analysis relative to control; type: tissue-based
[6] = target: T1, Sodium-dependent dopamine transporter (Rattus norvegicus, UniProt P23977); assay: Displacement of [3H]WIN35,428 from Sprague-Dawley rat brain DAT after 120 mins by liquid scintillation counting analysis; type: tissue-based
T1 sequence (P23977 whole entry): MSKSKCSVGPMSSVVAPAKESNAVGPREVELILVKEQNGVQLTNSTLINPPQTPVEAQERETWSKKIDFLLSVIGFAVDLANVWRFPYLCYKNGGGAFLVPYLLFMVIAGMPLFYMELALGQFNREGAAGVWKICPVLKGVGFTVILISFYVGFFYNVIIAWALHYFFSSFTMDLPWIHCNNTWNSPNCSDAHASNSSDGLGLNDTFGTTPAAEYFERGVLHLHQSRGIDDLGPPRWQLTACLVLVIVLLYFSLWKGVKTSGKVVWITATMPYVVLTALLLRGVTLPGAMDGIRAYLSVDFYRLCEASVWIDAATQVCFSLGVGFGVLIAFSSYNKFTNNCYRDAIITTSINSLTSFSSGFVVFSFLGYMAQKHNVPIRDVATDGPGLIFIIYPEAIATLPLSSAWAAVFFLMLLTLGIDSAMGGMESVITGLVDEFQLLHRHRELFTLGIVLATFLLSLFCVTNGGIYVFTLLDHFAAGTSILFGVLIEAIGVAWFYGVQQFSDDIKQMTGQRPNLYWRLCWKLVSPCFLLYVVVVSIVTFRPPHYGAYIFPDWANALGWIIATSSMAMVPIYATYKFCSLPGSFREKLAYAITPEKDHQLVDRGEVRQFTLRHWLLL

[7] = target: T1, Sodium-dependent dopamine transporter; assay: Displacement of [3H]WIN35,428 from rat brain DAT; type: tissue-based

Sodium-dependent serotonin transporter (Rattus norvegicus), sequence (P31652 whole entry): as the sequence (P31652 whole entry) above

In the case of `NC(=O)CSC(c1cccc(Cl)c1)c1cccc(Cl)c1`, the inhibition [1] is reported as < 50%, the Ki [2] is reported as 45.4 µM and the Ratio Ki (Rattus norvegicus [3]) is reported as > 2900. The Ki [4] was 808 µM.
`CNC(=O)CSC(c1ccc(Cl)cc1)c1ccc(Cl)cc1` showed a Ki [4] of 10.7 µM.
For `NC(=O)C[S+]([O-])C(c1cccc(F)c1)c1cccc(F)c1` (stereo not given), the inhibition [1] was < 50%, the inhibition (Rattus norvegicus [5]) was < 50% and the Ki [6] was 5.93 µM.
`O=C(CSC(c1ccc(Br)cc1)c1ccc(Br)cc1)NCCCc1ccccc1` showed a Ki [2] of 35.5 µM and a Ki [6] of 0.238 µM.
With `O=C(C[S+]([O-])C(c1ccc(Br)cc1)c1ccc(Br)cc1)NCCCc1ccccc1` (stereo not given) the Ki [4] was 0.892 µM and the inhibition (Rattus norvegicus [5]) was < 50%.
For `[O-][S+](CCNCCCc1ccccc1)C(c1ccc(Br)cc1)c1ccc(Br)cc1` (stereo not given), the Ki [2] was 8.65 µM, the Ki [4] was 0.557 µM and the Ki [6] was 1.27 µM.
`CCCCNCC[S+]([O-])C(c1ccccc1)c1ccccc1` (stereo not given) showed a Ki [2] of 138 µM and a Ki [4] of 63.6 µM.
In the case of `CCCNC(=O)CSC(c1ccc(F)cc1)c1ccc(F)cc1`, the Ki [2] is reported as 59.7 µM and the Ki [4] is reported as 44.2 µM.
With `CCCCNCCSC(c1ccccc1)c1ccccc1` the Ki [2] was 11.5 µM, the Ki [4] was 5.7 µM and the Ki [6] was 0.31 µM.
For `CCCNC(=O)CSC(c1ccccc1)c1ccccc1`, the inhibition [1] was < 50%, the Ki [2] was 68 µM and the Ki [4] was 419 µM.
For `Cc1ccc(C(c2ccc(C)cc2)[S+]([O-])CC(N)=O)cc1` (stereo not given), the inhibition [1] was < 50% and the inhibition (Rattus norvegicus [5]) was < 50%.
`NCCSC(c1ccccc1)c1ccccc1` showed a Ki [4] of 0.221 µM.
In the case of `c1ccc(CCCNCCSC(c2ccccc2)c2ccccc2)cc1`, the Ki [2] is reported as 5.5 µM and the Ki [4] is reported as 0.927 µM.
For `[O-][S+](CCNCCCc1ccccc1)C(c1ccc(Cl)cc1)c1ccc(Cl)cc1` (stereo not given), the Ki [2] was 5.67 µM, the Ki [4] was 0.553 µM and the Ki [6] was 0.645 µM.
Work on `CC(=O)N1[C@@H]2CC[C@H]1C[C@H](OC(c1ccc(F)cc1)c1ccc(F)cc1)C2` yielded a Ki [7] of 2.34 µM.
In the case of `CCCCNC(=O)CSC(c1ccccc1)c1ccccc1`, the inhibition [1] is reported as < 50% and the inhibition (Rattus norvegicus [5]) is reported as < 50%.
Molecule `CCCNC(=O)CSC(c1ccc(Cl)cc1)c1ccc(Cl)cc1` has a Ki [4] of 10.1 µM.
For `C=CCNC(=O)CSC(c1ccccc1)c1ccccc1`, the inhibition [1] was < 50%, the Ki [2] was 171 µM and the Ki [4] was 303 µM. The inhibition (Rattus norvegicus [5]) was < 50% and the Ki [6] was 8.37 µM.
For `NC(=O)C[S+]([O-])C(c1cccc(Cl)c1)c1cccc(Cl)c1` (stereo not given), the inhibition [1] was < 50% and the inhibition (Rattus norvegicus [5]) was < 50%.
With `NC(=O)CSC(c1ccccc1)c1ccccc1` the Ki [2] was 285 µM and the inhibition (Rattus norvegicus [5]) was < 50%.
With `CNC(=O)C[S+]([O-])C(c1ccccc1)c1ccccc1` (stereo not given) the inhibition [1] was < 50%, the inhibition (Rattus norvegicus [5]) was < 50% and the Ki [6] was 13.1 µM.
With `O=C(CSC(c1ccc(F)cc1)c1ccc(F)cc1)NCC1CC1` the Ki [4] was 34 µM and the Ki [6] was 6.7 µM.
Molecule `CNC(=O)CSC(c1ccc(Br)cc1)c1ccc(Br)cc1` has a Ki [2] of 11 µM.
Molecule `CCCNC(=O)CSC(c1ccc(Br)cc1)c1ccc(Br)cc1` has a Ki [2] of 10.6 µM.
Molecule `NCC[S+]([O-])C(c1ccccc1)c1ccccc1` (stereo not given) has a Ki [4] of 3.38 µM.
In the case of `O=C(CSC(c1ccccc1)c1ccccc1)NCCCCc1ccccc1`, the inhibition [1] is reported as < 50%.
With `O=C(CSC(c1ccccc1)c1ccccc1)NCC1CC1` the Ki [4] was 20.5 µM, the inhibition (Rattus norvegicus [5]) was < 50% and the Ki [6] was 13.6 µM.
`CNC(=O)CSC(c1ccccc1)c1ccccc1` gave a Ki [4] of 656 µM.
Work on `[O-][S+](CCNCCCc1ccccc1)C(c1ccc(F)cc1)c1ccc(F)cc1` (stereo not given) yielded a Ki [4] of 1.28 µM and a Ki [6] of 0.183 µM.
With `O=C(CSC(c1ccc(F)cc1)c1ccc(F)cc1)NCCCc1ccccc1` the Ki [4] was 3.5 µM and the inhibition (Rattus norvegicus [5]) was < 50%.
In the case of `NC(=O)C[S+]([O-])C(c1ccccc1)c1cccc(Br)c1` (racemic), the inhibition [1] is reported as < 50% and the inhibition (Rattus norvegicus [5]) is reported as < 50%.
In the case of `O=C(CSC(c1ccc(Br)cc1)c1ccc(Br)cc1)NCC1CC1`, the Ki [4] is reported as 7.03 µM, the inhibition (Rattus norvegicus [5]) is reported as < 50% and the Ki [6] is reported as 0.975 µM.
In the case of `O=C(CSC(c1ccc(Br)cc1)c1ccc(Br)cc1)NCCCCc1ccccc1`, the inhibition [1] is reported as < 50% and the inhibition (Rattus norvegicus [5]) is reported as < 50%.
